Like-named read-outs stand apart in the source and are kept apart here.
How the values were obtained:
[1] = system: mosquitoes; assay: Three-chamber test apparatus, mosquito personal area repellency of hung patches with human test subject as attractant; assay type: in vivo; details: for personal area control (result in words): no adhesive layer
Procedure: Various patch sizes and insect repellents were tested, initially using the test apparatus shown schematically generally at 20 in FIG. 3. The test apparatus 20 has a sample chamber 22, connected to a mosquito chamber 24, which is connected via an opening 34 to a remote chamber 26. Each chamber is generally cubical, with a volume of about 0.43 m^3.
The sample chamber 22 has an open end 28 on the side remote from the mosquito chamber 24. A screen 30 divides the sample chamber 22 from the mosquito chamber 24. The opening 34 between the mosquito chamber 24 and the remote chamber 26 is slightly constricted by side walls 32. However, the opening 34 is still sufficiently large that mosquitoes can freely move between the mosquito and remote chambers 24 and 26.
Four, screened, low-flow exhaust ports 36 are located in the side walls 32, the exhaust ports facing the open end 28. Air is drawn through the exhaust ports 36 and exhausted from the mosquito chamber 24 at a rate sufficient to draw air in through the open end 28 but insufficient to affect the flying of mosquitoes placed in the mosquito chamber 24 or to disturb the air in the remote chamber 26.
For each test, a human test subject 38 is placed at the open end 28 of the sample chamber 22, the test subject's breath providing the warmth, CO2, and moisture known to be human attractants for mosquitoes. The exhaust ports 36 pull air, along with those attractants, though the open end 28 and on through the sample chamber 22, the screen 30, and the mosquito chamber 24. The attractants thus leave the apparatus 20 without entering the remote chamber 26.
Mosquitoes are placed in the mosquito chamber 24 and are quickly attracted to the screen 30 by the human attractants. The open end 28 is large enough to expose primarily the upper torso and head of the test subject. Two patches 10 are hung one foot into the sample chamber 22 and approximately 20 cm down from the chamber's top (except as was done otherwise in particular experiments, as is noted, below).
Percent repellency was calculated as the percent of mosquitoes that had been initially introduced into the mosquito chamber 24 (most of which were attracted to the screen 30 before the patches 10 were put in place), that then were repelled from the screen when the patches were introduced. The “repellency” indicated in the table, below, for time zero reflects the mosquitoes that were not yet attracted to the screen 30 by the time the test patches 10 were introduced. […] The patches 10 used were 103 cm^2 in size, with no adhesive layer 18.
The patch material was a non-woven cloth material comprised of rayon, polyester, and polypropylene (as described in published U.S. Patent Application US20040082248), dosed with 60 mg of the active ingredient. The controls used no patches.
The same test apparatus 20 was used in the same way as described in Example 1, with the following changes. When a test included four patches 10, two were hung as in Example 1, and two were hung about 13 cm from the bottom of the chamber to simulate patches worn on the shoulders and at the waist of a user. In one test, as indicated in the table, below, the patches 10 were attached to the test subject's chest. Each individual patch was treated with the amount of insect repellent indicated. Time is shown in minutes.

[2] = cited from earlier work
[3] = Example 1, 2 patches 103 cm^2, 60 mg each
[4] = Example 1, 2 patches 103 cm^2, 60 mg each, no adhesive, 5 min
[5] = Example 1, 2 patches 103 cm^2, 60 mg each, no adhesive, 10 min
[6] = Example 1, 2 patches 103 cm^2, 60 mg each, no adhesive, 15 min
[7] = Example 1, 2 patches 103 cm^2, 60 mg each, no adhesive, 20 min
[8] = Example 1, 2 patches 103 cm^2, 60 mg each, no adhesive, time 0 min (mosquitoes not yet attracted to screen)

## CC1(C)[C@H](C=C(Cl)Cl)[C@H]1C(=O)OCc1c(F)c(F)cc(F)c1F [transfluthrin, (1R-trans)-(2,3,5,6-tetrafluorophenyl)-methyl-3-(2,2-dichloroethenyl)-2,2-dimethylcyclopropanecarboxylate]
[1]; [3]
  personal area repellency (result in words): successful personal area repellency
[1]; [4]
  % Repellency: 54%
[1]; [5]
  % Repellency: 75%
[1]; [6]
  % Repellency: 90%
[1]; [7]
  % Repellency: 92%
[1]; [8]
  % Repellency: 13%
[1]; Example 2, 2 patches 25.8 cm^2, 30 mg each, 0 min
  % Repellency: 13
[1]; Example 2, 2 patches 25.8 cm^2, 30 mg each, 5 min
  % Repellency: 41
[1]; Example 2, 2 patches 25.8 cm^2, 30 mg each, 10 min
  % Repellency: 68
[1]; Example 2, 2 patches 25.8 cm^2, 30 mg each, 15 min
  % Repellency: 74
[1]; Example 2, 2 patches 25.8 cm^2, 30 mg each, 20 min
  % Repellency: 79
[1]; Example 2, 2 patches 103.22 cm^2 taped to test subject's chest, 60 mg each, 0 min
  % Repellency: 19
[1]; Example 2, 2 patches 103.22 cm^2 taped to test subject's chest, 60 mg each, 5 min
  % Repellency: 33
[1]; Example 2, 2 patches 103.22 cm^2 taped to test subject's chest, 60 mg each, 10 min
  % Repellency: 44
[1]; Example 2, 2 patches 103.22 cm^2 taped to test subject's chest, 60 mg each, 15 min
  % Repellency: 52
[1]; Example 2, 2 patches 103.22 cm^2 taped to test subject's chest, 60 mg each, 20 min
  % Repellency: 81
[1]; Example 2, 4 patches 6.45 cm^2, 120 mg each, 0 min
  % Repellency: 11
[1]; Example 2, 4 patches 6.45 cm^2, 120 mg each, 5 min
  % Repellency: 21
[1]; Example 2, 4 patches 6.45 cm^2, 120 mg each, 10 min
  % Repellency: 32
[1]; Example 2, 4 patches 6.45 cm^2, 120 mg each, 15 min
  % Repellency: 42
[1]; Example 2, 4 patches 6.45 cm^2, 120 mg each, 20 min
  % Repellency: 47
[1]; Example 2, 4 patches* 6.45 cm^2, 60 mg each, 4th patch added 10 minutes into test, 0 min
  % Repellency: 5
[1]; Example 2, 4 patches* 6.45 cm^2, 60 mg each, 4th patch added 10 minutes into test, 5 min
  % Repellency: 26
[1]; Example 2, 4 patches* 6.45 cm^2, 60 mg each, 4th patch added 10 minutes into test, 10 min
  % Repellency: 47
[1]; Example 2, 4 patches* 6.45 cm^2, 60 mg each, 4th patch added 10 minutes into test, 15 min
  % Repellency: 47
[1]; Example 2, 4 patches* 6.45 cm^2, 60 mg each, 4th patch added 10 minutes into test, 20 min
  % Repellency: 47
[1]; Example 2, total area of patches at least 51.6 cm^2 (2 patches, each 25.8 cm^2)
  personal area control (result in words): successful personal area control
[2]; @ 20° C.
  Vapor pressure: 3.0 × 10^−6 mmHg @

## CC=C[C@@H]1[C@@H](C(=O)OCc2c(F)c(F)c(C)c(F)c2F)C1(C)C (racemic) [profluthrin, 2,3,5,6-tetrafluoro-4-methylbenzyl (EZ)-(1RS,3RS)-2,2-dimethyl-3-(prop-1-enyl)-cyclopropanecarboxylate]
[1]; [3]
  personal area repellency (result in words): successful personal area repellency
[1]; [4]
  % Repellency: 55%
[1]; [5]
  % Repellency: 67%
[1]; [6]
  % Repellency: 91%
[1]; [7]
  % Repellency: 93%
[1]; [8]
  % Repellency: 6%
[2]; @ 25° C.
  Vapor pressure: 7.73 × 10^−5 mmHg @

## COP(=O)(OC)OC=C(Cl)Cl [DDVP, 2,2-dichlorovinyl dimethyl phosphate]
[1]; Example 2, 4 patches 103 cm^2, 60 mg each, 0 min
  % Repellency: 5
[1]; Example 2, 4 patches 103 cm^2, 60 mg each, 5 min
  % Repellency: 11
[1]; Example 2, 4 patches 103 cm^2, 60 mg each, 10 min
  % Repellency: 47
[1]; Example 2, 4 patches 103 cm^2, 60 mg each, 15 min
  % Repellency: 95
[1]; Example 2, 4 patches 103 cm^2, 60 mg each, 20 min
  % Repellency: 95
[1]; Example 2, 4 patches, each 103 cm^2 in gross area
  personal area control (result in words): successful personal area control
[2]; @ 20° C.
  Vapor pressure: 1.2 × 10^−5 mmHg @

## C#C[C@@H](OC(=O)[C@@H]1[C@@H](C=C(C)C)C1(C)C)C(C)=CCC (racemic) [emphenthrin, (RS)-1-ethynyl-2-methyl-2-pentenyl-(1RS,3RS)-2,2-dimethyl-3-(2-methylpropenyl)-cyclopropanecarboxylate]
[1]; Example 2, 2 patches 103 cm^2, 60 mg each, 0 min
  % Repellency: 17
[1]; Example 2, 2 patches 103 cm^2, 60 mg each, 5 min
  % Repellency: 33
[1]; Example 2, 2 patches 103 cm^2, 60 mg each, 10 min
  % Repellency: 29
[1]; Example 2, 2 patches 103 cm^2, 60 mg each, 15 min
  % Repellency: 29
[1]; Example 2, 2 patches 103 cm^2, 60 mg each, within 20 minutes
  practical mosquito personal area repellency (result in words): proved not to be an insect repellent capable of providing practical mosquito personal area repellency within 20 minutes

— patent US10004225B2, “Wearable insect repelling patch” (S. C. Johnson & Son, Inc., priority 2005, dated 2018)
